Test results published in patent US20260191874A1, “FUSED AMINO PYRIMIDINE COMPOUNDS FOR TREATMENT OF AUTISM SPECTRUM DISORDER, OBSESSIVE COMPULSIVE DISORDER AND TICS” (Ovid Therapeutics Inc., priority 2024, published 2026).

Legend:
NKCC1 = biological target: T1, NKCC1 (Homo sapiens, UniProt P55011); assay: Tl+ flux assay in HEK-293 cells expressing NKCC1; format: cell-based; conditions: read-out: concentration at which effects on NKCC1 were seen (EC50 chart, FIG. 1G)
T1 construct: expressed in transfected cells; host or cells: HEK-293
T1 sequence (P55011 1-1212): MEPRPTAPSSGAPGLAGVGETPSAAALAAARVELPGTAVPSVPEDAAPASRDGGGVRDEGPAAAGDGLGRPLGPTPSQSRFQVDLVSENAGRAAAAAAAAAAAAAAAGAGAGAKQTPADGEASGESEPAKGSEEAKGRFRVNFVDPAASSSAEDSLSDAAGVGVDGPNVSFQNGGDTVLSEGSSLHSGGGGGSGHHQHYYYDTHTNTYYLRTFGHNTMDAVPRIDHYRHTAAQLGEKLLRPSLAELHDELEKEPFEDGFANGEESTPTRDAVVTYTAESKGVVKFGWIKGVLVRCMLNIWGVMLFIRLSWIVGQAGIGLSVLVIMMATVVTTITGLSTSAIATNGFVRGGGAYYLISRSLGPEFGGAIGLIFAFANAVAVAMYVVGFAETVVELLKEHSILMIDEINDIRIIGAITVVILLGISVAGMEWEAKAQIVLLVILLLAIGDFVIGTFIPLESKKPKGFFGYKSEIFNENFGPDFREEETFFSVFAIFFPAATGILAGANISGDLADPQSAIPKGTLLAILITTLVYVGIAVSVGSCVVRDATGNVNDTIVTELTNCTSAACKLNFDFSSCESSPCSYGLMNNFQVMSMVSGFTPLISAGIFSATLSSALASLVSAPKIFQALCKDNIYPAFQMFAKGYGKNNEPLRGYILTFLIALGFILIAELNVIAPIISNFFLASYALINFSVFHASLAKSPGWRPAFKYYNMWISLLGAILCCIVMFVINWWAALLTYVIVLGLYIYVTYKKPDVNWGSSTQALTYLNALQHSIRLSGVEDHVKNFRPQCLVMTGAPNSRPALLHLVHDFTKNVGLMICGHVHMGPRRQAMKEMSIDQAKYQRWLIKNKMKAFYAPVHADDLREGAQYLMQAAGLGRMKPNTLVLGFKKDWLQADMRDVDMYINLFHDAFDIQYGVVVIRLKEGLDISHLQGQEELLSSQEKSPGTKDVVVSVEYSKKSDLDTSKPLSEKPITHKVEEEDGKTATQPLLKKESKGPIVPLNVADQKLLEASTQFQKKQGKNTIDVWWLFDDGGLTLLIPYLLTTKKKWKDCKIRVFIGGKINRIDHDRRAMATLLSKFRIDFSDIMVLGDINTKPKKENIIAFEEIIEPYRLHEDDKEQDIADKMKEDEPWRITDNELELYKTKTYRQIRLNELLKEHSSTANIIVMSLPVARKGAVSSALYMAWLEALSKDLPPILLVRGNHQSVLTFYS
Protocol: (§1) FLIPR TI Flux assay. HEK-293 cells were washed with HBSS, and then incubated with loading buffer containing TI sensitive fluorescent dye (https://www.moleculardevices.com), 20 μM bumetanide 20 μM ouabain and 2.5 mM probenecid for 1 h at room temperature (RT) under control conditions or with drugs in the dark using a FlexStation 3 microplate reader (Molecular Devices) and imaged […] for 30 min. Stimulus buffer was added containing 5 mM K^+/0.5 mM Tl^+ and cells were imaged every 1.5 over a 190 second time course The initial rate Tl^+ uptake (Relative Fluorescence Units (RFU) per second) was determined following addition of the stimulus buffer as outlined previously (Conway et al., 2017, supra) (Lee et al., 2022, supra).
(§2) Several studies have shown that the activity and plasma membrane accumulation of KCC2 is potentiated via phosphorylation of S940, a process mediated by the activity of protein kinase C and protein phosphatase 1 (Lee et al., 2011, supra; Lee et al., J Biol Chem 282, 29777-29784 (2007); Moore et al., Proc. Natl. Acad. Sci. U.S.A 115, 10166-10171 (2018); Moore et al., Trends Neurosci. 40, 555-571 (2017); Silayeva et al., Proc. Natl. Acad. Sci. U.S.A 112, 3523-3528 (2015)). […] Compared to KCC2, effects on KCC3, KCC4, and NKCC1 were only seen at concentrations more than 35-fold that of KCC2 (≥100 μM) (FIG. 1G).

KCC3 = biological target: T2, KCC3 (Homo sapiens, UniProt Q9UHW9); assay: Tl+ flux assay in HEK-293 cells expressing KCC3; format: cell-based; conditions: read-out: concentration at which effects on KCC3 were seen (EC50 chart, FIG. 1G)
T2 construct: expressed in transfected cells; host or cells: HEK-293
T2 sequence (Q9UHW9 1-1150): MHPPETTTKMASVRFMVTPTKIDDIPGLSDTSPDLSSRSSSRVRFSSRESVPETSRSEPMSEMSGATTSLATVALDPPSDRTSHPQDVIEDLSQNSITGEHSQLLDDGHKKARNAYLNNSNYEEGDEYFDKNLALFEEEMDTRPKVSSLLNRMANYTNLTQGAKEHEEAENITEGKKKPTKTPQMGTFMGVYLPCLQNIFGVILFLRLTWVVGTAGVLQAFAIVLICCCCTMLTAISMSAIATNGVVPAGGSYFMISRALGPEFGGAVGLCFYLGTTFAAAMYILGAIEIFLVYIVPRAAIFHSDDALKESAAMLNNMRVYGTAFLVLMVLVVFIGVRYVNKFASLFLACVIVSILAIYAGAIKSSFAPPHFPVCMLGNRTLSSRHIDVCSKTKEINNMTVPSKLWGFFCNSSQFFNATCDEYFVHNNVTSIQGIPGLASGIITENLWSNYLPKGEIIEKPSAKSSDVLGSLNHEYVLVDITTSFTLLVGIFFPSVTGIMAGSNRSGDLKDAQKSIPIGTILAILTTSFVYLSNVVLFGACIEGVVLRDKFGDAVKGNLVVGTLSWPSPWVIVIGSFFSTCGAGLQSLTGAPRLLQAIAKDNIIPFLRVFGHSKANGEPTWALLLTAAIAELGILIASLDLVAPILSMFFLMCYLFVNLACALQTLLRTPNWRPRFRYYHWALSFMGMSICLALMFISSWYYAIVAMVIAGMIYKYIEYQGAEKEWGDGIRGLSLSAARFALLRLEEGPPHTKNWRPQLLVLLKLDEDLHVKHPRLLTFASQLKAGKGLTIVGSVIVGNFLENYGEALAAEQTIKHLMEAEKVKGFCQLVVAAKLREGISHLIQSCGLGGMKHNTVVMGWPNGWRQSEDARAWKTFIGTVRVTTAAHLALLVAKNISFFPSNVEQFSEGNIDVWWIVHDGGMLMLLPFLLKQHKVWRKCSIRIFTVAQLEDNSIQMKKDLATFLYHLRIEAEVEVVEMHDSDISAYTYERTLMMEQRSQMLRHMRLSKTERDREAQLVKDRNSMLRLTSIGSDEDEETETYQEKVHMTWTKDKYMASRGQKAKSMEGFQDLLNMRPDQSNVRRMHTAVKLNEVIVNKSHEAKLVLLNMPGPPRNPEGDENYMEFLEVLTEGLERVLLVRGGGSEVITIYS
Protocol: as §1, §2

Question: Which EC50 (NKCC1) does the source give for C[C@@H]1CN(c2nc3c(c(Nc4ccc(C5CCCCC5)cc4)n2)COC3)CCO1 [Compound A, (R)—N-(4-cyclohexylphenyl)-2-(2-methylmorpholino)-5,7-dihydrofuro[3,4-d]pyrimidin-4-amine] here?
Answer: ≥ 100 µM

Question: And the EC50 (KCC3)?
Answer: ≥ 100 µM
